Experimental data as given in patent US20210244686A1, “Novel Systems And Methods For The Therapeutic Use of Cannabinoids or Cannabinoid Analogs to Increase The Lipid Order of Cholesterol Containing Cell Membranes” (The Regents of the University of Colorado a body corporate, priority 2018, published 2021).

Tests used:
Type in all cases: cell-based, human
[1] = test system: SKNBE2 neuroblastoma cells; assay: Toxicity profiling, percent death with and without cholesterol challenge; conditions: 24 hrs of exposure; high doses
Text: FIG. 15. Toxicity profiling.

[2] = test system: SK-N-BE(2) cells; assay: Fluorometric total cellular cholesterol (Amplex Red Cholesterol Assay Kit); conditions: orthogonal experiment
Text: FIG. 11A-C. (A) Plots of 13C labelled (left) and total+labeled cholesterol (right) abundances measured in methanol extracts from vehicle/CBD treated cells. (B) A similar analysis for cholesterol precursors. (C) Fluorometric measurement of total cellular cholesterol from methanol extracts of SK-N-BE(2) cells using the Amplex Red Cholesterol Assay Kit.
These findings raise the question of whether CBD treatment leads to alterations in lipid and cholesterol metabolism (the latter pathway depicted in FIG. 3A). The present inventors used mass spectrometry-based lipidomics, a subset of metabolomics, to quantify the effect of CBD on the fluxes of key lipids and sterols. Vehicle and CBD exposed cells were fed ^13C labeled glucose for 24 hours and harvested using methanol extraction and mass spectrometry analysis. Cholesterol biosynthesis was analyzed by determining the level of incorporation of ^13C into biosynthetic intermediates. […] The effect of CBD on total cellular cholesterol was confirmed using a fluorogenic assay for cholesterol in an orthogonal experiment (FIG. 11B).

[3] = test system: SREBP2; assay: Western blot analysis of SREBP2 proteolytic processing; conditions: 24 hr
Text: To further investigate the role of SREBP/SCAP signaling in the CBD response, the present inventors used western blot analysis to probe whether SREBP2 proteolytic processing is affected by CBD. […] The present inventors performed this assay with cells grown in LDL containing FBS (elevated cholesterol) and LDL depleted FBS (cholesterol starved). […] However, the inventors also detect evidence that although cholesterol precursors are accumulating in a CBD dependent manner, cholesterol itself appears to experience a net decrease in de novo synthesis. This is evident in the overall decrease in newly synthesized ^13C labeled cholesterol in CBD treated cells (FIG. 3B) and implies an apparent blockage in the final step of cholesterol biosynthesis, which is catalyzed by either DHCR24 or DHCR7 in the ER.
Cells were harvested at 24 hours by trypsinization and counted using a hemocytometer to determine cell concentration. 4×10^6 cells from each sample were lysed using 200 μL SDS lysis buffer (20 mM Tris pH 6.8, 4% SDS, 0.5% beta mercaptoethanol) and lysates were boiled for 5 minutes 95° C. and subsequently sonicated at 40% power 10 cycles 10 seconds on/off. 10 μL of lysate was loaded into each lane of a 12% SDS PAGE gel. Immunoblotting of protein transferred to nitrocellulose membrane was performed using anti-SREBP2 (Cayman Chemical #10007663).

[4] = test system: SK-N-BE(2) and HaCaT keratinocyte cell lines; assay: FRET biosensor profiling of CBD response; conditions: CBD dose and time survey
Experimental: To efficiently design the multi-omics experiments, the present inventors exposed the neuroblastoma cell line SK-N-BE(2) to escalating doses of CBD at 24, 48, and 72 hours and determined the EC50 of toxicity of CBD to be greatest at 72 hours and at an approximate concentration of 20 μM (FIG. 1 B). To maximize the efficient use of the inventor's multi-omic resources, a large dose and time survey of the CBD response was conducted in a panel of transgenic SK-N-BE(2) and HaCaT keratinocyte cell lines, each expressing a genetically encoded förster resonance energy transfer (FRET) biosensor gene capable of reporting the activity of a cellular effector molecule/activity including, but not limited to: AMP kinase activity, Erk kinase activity, cytosolic ATP, glucose, lactate, pyruvate & glutamine, Ca^2+ in the ER & Cytosol, mTor kinase activity & TACE protease activity. […] The biosensor activity profiles as a function of CBD dose and time (FIGS. 9A-C) were analyzed for the EC50 of each biosensor activity at each time (FIG. 10). The result of these efforts outlined that the most robust dose of CBD for use in multi-omic experiments is 20 μM and that the kinetic profile of the CBD response begins in hours and persists for days.
Stable transgenic biosensor expressing cell lines were made in HaCaT and SK-N-BE(2) cells. […]

C=C(C)[C@@H]1CCC(C)=C[C@H]1c1c(O)cc(CCCCC)cc1O [CBD, cannabidiol] was tested, and the “toxicity in cells challenged with a high cholesterol environment” value [1] was “toxic”, the “effect on total cellular cholesterol, fluorogenic assay” value [2] was “confirmed” and the “magnitude of SREBP2 cleavage activation versus U18666A or Atorvastatin” value ([3]; U18666A 10 μM, Atorvastatin 10 μM) was “lower in magnitude”. For the same molecule, the SREBP2 cleavage ([3]; both cholesterol starved and elevated cholesterol conditions) was “dose dependent activation” and the “biosensor activities across panel” value [4] was “causes modulation of all biochemical pathways that were probed”.
